biological target: T1, recombinant GST Lck SH2 domain fusion protein (Homo sapiens, UniProt P06239); assay: solid phase EIA inhibition assay: binding of GST Lck SH2 domain to CD3 ζ chain ITAM 2 phosphopeptide; settings: assay example 1, stronger inhibitors >60% inhibition, weaker inhibitors <60% inhibition
T1 construct: recombinant GST Lck SH2 domain fusion protein; made in house
Method: Compounds of the invention were obtained from commercial sources and were tested using a high-throughput Enzyme Immunoassay (EIA) developed to rapidly quantify inhibition.
Biological activities were measured using said EIA assay using 96 well medium binding EIA plates (Costar). Wells were coated with 100 μl of human CD3 ζ chain ITAM 2 phosphopeptide conjugated to BSA (˜10 pmole peptide equivalent) in PBS overnight at 4° C. and blocked with 300 μl of PBS containing 5% (wt/vol) powdered skim milk for 1 h at 37° C. After washing with PBS containing 1% Tween 20 (PBST), 3 times, 100 μl of precalibrated bacterial lysate containing recombinant GST Lck SH2 domain fusion protein was added in the presence or absence of test compounds and incubated for 1 h at room temperature. After 3 extensive washings with PBST, 100 μl of PBS containing HRP-conjugated rabbit anti-GST antibody was added and incubated for 1 h. After extensive washing with PBST, 100 μl of TMB substrate was added and absorbance at 620 nm was measured using a multiwell EIA plate reader (Anthos HTIII). The percent inhibition (% inhibition) was calculated based on the optical density (OD) using the formula: % inhibition=100−(ΔOD of test well/ΔOD of positive wells)×100, where ΔOD was calculated by subtracting background OD (average OD of negative wells) from the test as well as positive control wells. Error analysis was performed on two or more measurements.

T1 sequence (P06239 127-224 limits assumed): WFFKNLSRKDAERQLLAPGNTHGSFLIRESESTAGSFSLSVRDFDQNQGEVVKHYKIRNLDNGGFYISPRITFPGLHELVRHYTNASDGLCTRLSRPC

Row | Compound | inhibitory activity, in words
1 | Cc1cccc(NC(=O)CN2C(=O)S/C(=C\c3ccc(O)cc3)C2=O)c1 [276-6] | lower activity
2 | COC(=O)c1ccc(-c2ccc(/C=C3\SC(=O)N(CC(=O)Nc4ccc(C)cc4)C3=O)o2)c(C)c1 [276-8] | weak inhibitors
3 | Cc1ccc(NC(=O)CN2C(=O)S/C(=C\c3ccccc3O)C2=O)cc1 [276-11] | lowest activity among the highly active compounds
4 | Cc1ccc(NC(=O)CN2C(=O)S/C(=C/c3ccc(-c4ccc(Cl)c(C(=O)O)c4)o3)C2=O)cc1 [276-13] | stronger inhibitors
5 | Cc1ccc(NC(=O)CN2C(=O)S/C(=C\c3cccc(O)c3)C2=O)cc1 [276-14] | lower activity
6 | Cc1ccc(NC(=O)CN2C(=O)S/C(=C\c3ccc(O)cc3)C2=O)cc1 [276-15] | lower activity

— patent publication US20070099970A1, “Immunomodulatory compounds that target and inhibit the pY'binding site of tyrosene kinase p56 LCK SH2 domain” (priority 2005, published 2007)
